Results on nine compounds are retold here after patent publication US20240400584A1, “COMPOUNDS AND METHODS FOR MODULATING SPLICING” (REMIX THERAPEUTICS INC., priority 2021, published 2024).

What is called IC50 is the concentration that gives 50% inhibition. One may read the AC50 as the midpoint of the concentration-response curve, whichever way the signal moves. A lower AC50 goes with greater potency.

The test system of experiment [1] is MYB. Nature of the experiment: RT-qPCR splicing assay, MYB AJ/CJ mRNA. It counts as cell-based. The note with it: Homo sapiens, A673 or K562 cells, 24 hours; for IC50: decrease in canonical junction mRNA; for AC50: increase in alternative junction mRNA. An outline of the steps:
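HTT and MYB canonical (CJ) and alternative-exon (AJ) junction transcripts quantified by one-step RT-qPCR from lysates of A673 or K562 cells treated 24 h with 11-point 3-fold dilutions (top 10 uM, ≤0.25% DMSO). Ct normalized to GAPDH, GUSB or PPIA and DMSO control (2^−ΔΔCt), expressed as % response.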
For orientation: Real-time PCR tracks product formation cycle by cycle.

For experiment [2], the system named is MYB. Nature of the experiment: Gene panel canonical junction qPCR assay, MYB CJ mRNA (Table 7). The format is cell-based. The note with it: Homo sapiens, read-out: MYB CJ mRNA decrease IC50. An outline of the steps: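 Canonical-junction transcript decrease reported as IC50 from a 4-parameter logistic fit of percentage response, derived from 2^(−ΔΔCt) versus housekeeper (GAPDH/GUSB/PPIA) and DMSO control using preset ΔCt windows. Readout by cDNA synthesis and qPCR with exon-junction-overlapping probesets in compound-treated K562 or A673 cells.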

For the compound `COc1cc(-c2ccc3c(c2)COc2nc(N4CCC(N(C)C5CCC5)C4)ccc2-3)cnn1` (stereo not drawn) [Compound 307, N-cyclobutyl-1-[8-(6-methoxypyridazin-4-yl)-6H-isochromeno[3,4-b]pyridin-3-yl]-N-methylpyrrolidin-3-amine], in the experiment with MYB [1], the IC50 was 1 to 10 µM and the AC50 lay within 0.1 to 1 µM. In addition, the IC50 with MYB [2] lay in the range of 1 to 10 µM.

`CN(c1ccc2c(n1)OCc1cc(-n3cccn3)ccc1-2)[C@@H]1C[C@H]2CC[C@@H](C1)N2` [Compound 149]: the IC50 with MYB [1] and in the experiment on MYB [2] was 0.1 to 1 µM throughout. The compound further came in with an AC50 in the experiment with MYB [1] of 0.1 to 1 µM.

As to `COc1cc(-c2ccc3c(c2)COc2nc(N(C)[C@@H]4C[C@H]5CC[C@@H](C4)N5)ccc2-3)cnn1` [Compound 159], the IC50 in the experiment with MYB [1] and in the experiment with MYB [2] was < 0.1 µM throughout. Also, the half-maximal activity concentration (AC50) with MYB [1] was < 0.1 µM.

In the experiment on MYB [1], `COc1cc(-c2ccc3c(c2)COc2nc(N(C)[C@@H]4C[C@H]5CC[C@@H](C4)N5)ccc2-3)ccn1` [Compound 156] came in with an IC50 of 0.1 to 1 µM and an AC50 of 0.1 to 1 µM. Further, the IC50 in the experiment with MYB [2] was in the range of 0.1 to 1 µM.

In the experiment with MYB [1], `c1cc2c(cc1-c1cn[nH]c1)COc1nc(N3CCC34CCNC4)ccc1-2` (stereo not drawn) [Compound 207] came in with an IC50 of 1 to 10 µM and an AC50 of 0.1 to 1 µM. In addition, in the experiment with MYB [2], the IC50 is 1 to 10 µM.

Turning to `c1cc2c(cc1-c1cn[nH]c1)COc1nc(O[C@@H]3C[C@H]4CC[C@@H](C3)N4)ccc1-2` [Compound 218], the half-maximal inhibitory concentration (IC50) with MYB [1] and in the experiment with MYB [2] was 0.1 to 1 µM in each case. This compound also showed an AC50 in the experiment with MYB [1] of 0.1 to 1 µM.

Turning to `CN(c1ccc2c(c1)COc1cc(-n3cccn3)ccc1-2)C1CC(C)(C)NC(C)(C)C1` [Compound 117], in the experiment on MYB [1], the IC50 lay in the range of 1 to 10 µM and the AC50 was > 10 µM. Moreover, the IC50 in the experiment on MYB [2] was 1 to 10 µM.

Take `CN(c1ccc2c(n1)OCCc1cc(-c3cn[nH]c3)ccc1-2)[C@@H]1C[C@H]2CC[C@@H](C1)N2` [Compound 146]: in the experiment with MYB [1], the IC50 is > 10 µM and the AC50 was > 10 µM. Moreover, the IC50 in the experiment with MYB [2] is > 10 µM.

Consider `COc1cc(-c2ccc3c(c2)COc2nc(N4CCC(N(C)C)C4)ccc2-3)cnn1` (stereo not drawn) [Compound 306, 1-[8-(6-methoxypyridazin-4-yl)-6H-isochromeno[3,4-b]pyridin-3-yl]-N,N-dimethylpyrrolidin-3-amine], for which, in the experiment on MYB [1], the IC50 lay within 1 to 10 µM and the AC50 was 1 to 10 µM. In addition, the half-maximal inhibitory concentration (IC50) in the experiment on MYB [2] is 1 to 10 µM.
